The results in this text go back to the supplement of paper PMC5579334.

± gives the standard deviation of the averaged measurements.

Assay [1] concerns HS-PSS. The experiment in a line: % inhibition of CellTiter-Glo viability at highest tested concentration (72 h), relative to DMSO and benzethonium chloride controls; higher = more inhibition. The procedure, abridged: (§1)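 MPNST cell lines and primary human Schwann cells were seeded at 750–1000 cells per well into 384-well plates preprinted with each compound at five concentrations in 10-fold steps, then incubated 72 h at 37 °C, 5% CO2. CellTiter-Glo ATP luminescence gave viability, scaled between vehicle and positive-control wells, with duplicates averaged where present. Curves were fitted with a four-parameter logistic model. Percent inhibition refers to the top concentration, while drug sensitivity score and relative IC50, censored at the top concentration, come from these fits.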

For assay [2], the system named is STS26T. The assay is described as above. Put shortly: as §1
For assay [3], the system named is S1507-2. The assay is described as above. The procedure, abridged:
as §1

Assay [4] concerns HSC1 (primary human Schwann cells). The description is as above. Put shortly: as §1
The test system of assay [5] is HS-Sch-2. The description is as above. The procedure, abridged: as §1
Assay [6] deals with HSC2 (primary human Schwann cells). The assay is described as above. The procedure, abridged:
as §1

Assay [7] deals with S462. Described as above. Put shortly:
as §1

Assay [8] has as its system YST-1. The description is as above. Put shortly:
as §1

In assay [9] the test system is ST8814. Described as above. The procedure, abridged:
as §1

For assay [10], the system named is HS-PSS. The experiment in a line: drug sensitivity score (DSS, CellTox-Green cytotoxicity, 72 h) (DSS (dimensionless)); higher = more cytotoxic; extreme values may be limits of the assay. The procedure, abridged: (§2)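 For 72 h at 37 °C, MPNST cell lines and primary human Schwann cells were exposed in 384-well plates to five 10-fold compound dilutions. CellTox-Green, added before seeding at a final 1:1000 dilution, gave fluorescence from DNA released by disrupted cells. Signals were scaled to vehicle and positive-control wells, cultures failing plate quality control were left out, and four-parameter logistic fits were applied. Relative IC50 and drug sensitivity score were derived from the fits, with IC50 censored at the top concentration.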

For assay [11], the system named is STS26T. The assay is described as above. The procedure, abridged:
as §2

In assay [12] the test system is S1507-2. Described as above. The procedure, abridged:
as §2

Assay [13] deals with HSC1 (primary human Schwann cells). Described as above. The procedure, abridged: as §2
For assay [14], the system named is HSC2 (primary human Schwann cells). The description is as above. Put shortly:
as §2

In assay [15] the test system is ST8814. Described as above. Put shortly: as §2
Assay [16] relates to HS-PSS. In words: drug sensitivity score (DSS, CellTiter-Glo viability, 72 h) (DSS (dimensionless)); higher = more sensitive; extreme values may be limits of the assay. The procedure, abridged:
as §1

Assay [17] concerns STS26T. The description is as above. Put shortly:
as §1

Assay [18] deals with S1507-2. Described as above. The procedure, abridged:
as §1

Assay [19] deals with HSC1 (primary human Schwann cells). Described as above. The procedure, abridged:
as §1

For assay [20], the system named is HS-Sch-2. The assay is described as above. Put shortly:
as §1

Assay [21] relates to HSC2 (primary human Schwann cells). The assay is described as above. The procedure, abridged:
as §1

In assay [22] the test system is S462. The assay is described as above. Put shortly:
as §1

Assay [23] has as its system YST-1. Described as above. Put shortly:
as §1

Assay [24] relates to ST8814. The assay is described as above. The procedure, abridged:
as §1

Turning to `O=C(c1ccc(OCCN2CCCCC2)cc1)c1c(-c2ccc(O)cc2)sc2cc(O)ccc12` [Raloxifene] (max concentration tested 10000 nM), the “% inhibition” value came to 44.5% in the assay on HS-PSS [1]; 41.3% in the assay with STS26T [2]; 54.55 ± 0.068% in the assay on S1507-2 [3]; 42.1% in assay [4]; 85.8% with HS-Sch-2 [5]; 41.8% in [6]. The “% inhibition” value in the assay on S462 [7] came out at 19.7 ± 3.4%; in the assay on YST-1 [8] it was 25.5%; in the assay with ST8814 [9], 36.5%. Besides, the drug sensitivity score in the assay on HS-PSS [10] was found to be 0; with STS26T [11], 0.897; in the assay on S1507-2 [12], 1.4 ± 1.7; in assay [13], 0; in assay [14] it was 0; in the assay with ST8814 [15], 1.85. The drug sensitivity score with HS-PSS [16] was determined as 4.8; in the assay on STS26T [17], 1.99; in the assay with S1507-2 [18], 2.99 ± 0.22; in assay [19], 2.17; in the assay with HS-Sch-2 [20], 7.33; in [21], 3.34. The drug sensitivity score with S462 [22] is 0.649 ± 0.51; in the assay on YST-1 [23] it was 1.7; in the assay with ST8814 [24], 1.9.

With `NC1(c2ccc(-c3nc4ccn5c(=O)[nH]nc5c4cc3-c3ccccc3)cc2)CCC1` [MK-2206] (max concentration tested 1000 nM), the “% inhibition” value is 18% with HS-PSS [1]; 29.9% in the assay on STS26T [2]; 23.8 ± 1.6% in the assay on S1507-2 [3]; 11% in [4]; 13.3% with HS-Sch-2 [5]; -3.64% in assay [6]. The figures for the “% inhibition” value in the assay with S462 [7], with YST-1 [8] and in the assay on ST8814 [9] were 10.5 ± 1.5%, 46.2% and 2.43%, respectively. Moreover, the drug sensitivity score (in the assay with HS-PSS [10]; in the assay on STS26T [11]; in the assay on S1507-2 [12]; in [13]; in assay [14]; in the assay on ST8814 [15]) was 0 each time. In addition, the drug sensitivity score with HS-PSS [16] came out at 1.05; in the assay on STS26T [17], 2.7; in the assay on S1507-2 [18], 2.75 ± 0.87; in assay [19], 0.083; with HS-Sch-2 [20] it was 0.49; in assay [21] it was 0. The figures for the drug sensitivity score in the assay with S462 [22], with YST-1 [23] and in the assay with ST8814 [24] were 0.275 ± 0.12, 4.28 and 0, respectively.

For `COc1c(C)cnc(Cn2cnc3c(Cl)nc(N)nc32)c1C` [BIIB021] (max concentration tested 10000 nM), the “% inhibition” value was 88% with HS-PSS [1]; 90.3% in the assay with STS26T [2]; 98.34 ± 0.36% with S1507-2 [3]; 96.4% in assay [4]; 99.9% with HS-Sch-2 [5]; 96.9% in assay [6]. For the same molecule, the “% inhibition” value with S462 [7] worked out at 97 ± 1.1%; in the assay on YST-1 [8] it was 84.3%; in the assay with ST8814 [9], 96.1%. Moreover, the drug sensitivity score in the assay with HS-PSS [10] came to 5.44; with STS26T [11] it was 11.8; in the assay with S1507-2 [12], 15.8 ± 2.9; in assay [13] it was 20; in assay [14] it was 19.7; with ST8814 [15] it was 9.2. Moreover, the drug sensitivity score with HS-PSS [16] stood at 14.4; in the assay on STS26T [17], 16.9; with S1507-2 [18] it was 18.1 ± 1.3; in [19], 16.2; in the assay with HS-Sch-2 [20], 24.5; in assay [21], 17.6. Besides, the drug sensitivity score in the assay with S462 [22] was 20.083 ± 0.0076; in the assay with YST-1 [23], 15; with ST8814 [24], 17.8.

For the molecule `C=CC[C@@H]1/C=C(\C)C[C@H](C)C[C@H](OC)[C@H]2O[C@@](O)(C(=O)C(=O)N3CCCC[C@H]3C(=O)O[C@H](/C(C)=C/[C@@H]3CC[C@@H](O)[C@H](OC)C3)[C@H](C)[C@@H](O)CC1=O)[C@H](C)C[C@@H]2OC` [Tacrolimus] (max concentration tested 10000 nM), the “% inhibition” value in the assay on HS-PSS [1] is 8.62%; in the assay on STS26T [2], 8.77%; in the assay on S1507-2 [3] it was 6.29 ± 12%; in [4], 19.9%; in the assay on HS-Sch-2 [5], -0.54%; in [6], 5.26%. The “% inhibition” value in the assay with S462 [7] came out at 1.38 ± 2.8%; in the assay with YST-1 [8], 7.06%; with ST8814 [9], 13.4%. For the same molecule, the drug sensitivity score (with HS-PSS [10]; in the assay on STS26T [11]; with S1507-2 [12]; in assay [13]; in assay [14]; in the assay on ST8814 [15]) was 0 in each case. Moreover, the drug sensitivity score in the assay on HS-PSS [16] turned out to be 0; with STS26T [17], 0; in the assay on S1507-2 [18], 0.168 ± 0.24; in assay [19], 0.469; with HS-Sch-2 [20] it was 0; in [21], 0. Moreover, the drug sensitivity score with S462 [22] amounted to 0; in the assay on YST-1 [23], 0; in the assay with ST8814 [24] it was 0.177.

`CN(C)CCN1C(=O)c2cccc3cc(N)cc(c23)C1=O` [Amonafide] (max concentration tested 10000 nM): the “% inhibition” value in the assay on HS-PSS [1] amounted to 93.8%; in the assay on STS26T [2] it was 78.7%; in the assay on S1507-2 [3], 90.4 ± 2%; in assay [4], 69.3%; with HS-Sch-2 [5], 99.9%; in assay [6], 76.3%. Further, the “% inhibition” value turned out to be 90.9 ± 2.4% with S462 [7], 100% with YST-1 [8] and 101% in the assay on ST8814 [9]. For the same molecule, the drug sensitivity score in the assay with HS-PSS [10] came out at 4.02; in the assay on STS26T [11], 0.0609; in the assay with S1507-2 [12], 2.18 ± 0.64; in [13], 0; in assay [14], 0.087; with ST8814 [15] it was 3.57. Also, the drug sensitivity score in the assay with HS-PSS [16] is 6.59; with STS26T [17], 5.83; with S1507-2 [18], 8.84 ± 0.35; in [19] it was 7.05; in the assay with HS-Sch-2 [20], 8.84; in assay [21] it was 6.42. Moreover, the results for the drug sensitivity score in the assay with S462 [22], in the assay on YST-1 [23] and in the assay with ST8814 [24] were 8.23 ± 0.65, 11.1 and 8.9, respectively.

As for `Cc1cccc(-c2nn3c(c2-c2ccnc4ccc(C(N)=O)cc24)CCC3)n1` [Galunisertib] (max concentration tested 1000 nM), the “% inhibition” value in the assay on HS-PSS [1] was 3.21%; with STS26T [2], 12.7%; in the assay on S1507-2 [3] it was 9.64 ± 5.1%; in assay [4] it was 6.58%; in the assay with HS-Sch-2 [5], -22%; in assay [6], 10.8%. For the same molecule, the “% inhibition” value in the assay on S462 [7] was 5.62 ± 8.5%; in the assay on YST-1 [8], -12.1%; in the assay on ST8814 [9] it was -1.47%. Besides, the drug sensitivity score in the assay with HS-PSS [10] was found to be 0; in the assay with STS26T [11], 0; in the assay on S1507-2 [12], 0.0896 ± 0.13; in assay [13], 0; in [14], 0; in the assay with ST8814 [15], 0. Besides, the drug sensitivity score in the assay with HS-PSS [16] was 0; in the assay with STS26T [17] it was 0.276; in the assay on S1507-2 [18], 0; in [19] it was 0; with HS-Sch-2 [20] it was 0; in assay [21] it was 0. Besides, the results for the drug sensitivity score with S462 [22], in the assay on YST-1 [23] and in the assay with ST8814 [24] were 0.00835 ± 0.012, 0 and 0, respectively.

The term % inhibition denotes the change of the read-out against control, counted positive when it falls.
